Data on 31 compounds can be found in ChEMBL document CHEMBL4041490, “Discovery of nanomolar ligands with novel scaffolds for the histamine H4 receptor by virtual screening” (Eur J Med Chem, 2017).

Where only a bound is given, the exact number is not on record here.

One test addresses D(3) dopamine receptor (Homo sapiens, UniProt P35462). Kind of test: Antagonist activity at D3 receptor (unknown origin).
In test [1] the target is T1, Histamine H4 receptor (Homo sapiens, UniProt Q9H3N8). Kind of test: Antagonist activity at human H4 receptor expressed in CHO cells co-expressing Galphai2 assessed as inhibition of imetit-induced GTPgamma[35S] binding at 1 uM after 30 mins by microbeta scintillation counting method relative to control. The class given is cell-based.
The target in test [2] is T1, Histamine H4 receptor. Kind of test: Antagonist activity at human H4 receptor expressed in CHO cells co-expressing Galphai2 assessed as inhibition of imetit-induced GTPgamma[35S] binding after 30 mins by microbeta scintillation counting method. The class given is cell-based.
For test [3], the target named is T1, Histamine H4 receptor. Kind of test: Antagonist activity at H4 receptor in human SH-SY5Y cells assessed as inhibition of imetit-induced GTPgamma[35S] binding after 30 mins by microbeta scintillation counting method. The class given is cell-based. On the technique in general: GTPγS is a poorly hydrolysed GTP analogue; its binding reports G protein activation.

Test [4] deals with T1, Histamine H4 receptor. Nature of the test: Antagonist activity at H4 receptor in human SH-SY5Y cells assessed as inhibition of imetit-induced GTPgamma[35S] binding at 1 uM after 30 mins by microbeta scintillation counting method relative to control. The class given is cell-based.
The target of test [5] is Voltage-gated inwardly rectifying potassium channel KCNH2 (Homo sapiens, UniProt Q12809). Kind of test: Inhibition of human ERG.
The target in test [6] is T1, Histamine H4 receptor. Nature of the test: Antagonist activity at H4 receptor (unknown origin).
Another test concerns the target Histamine H3 receptor (Homo sapiens, UniProt Q9Y5N1). Kind of test: Antagonist activity at H3 receptor (unknown origin).
Test [7] concerns the target T1, Histamine H4 receptor. Nature of the test: Agonist activity at human H4 receptor expressed in CHO cell membranes co-expressing Galphai2 at 1 uM by GTPgamma[35S] binding assay.
The target in test [8] is T1, Histamine H4 receptor. Nature of the test: Agonist activity at human H4 receptor expressed in CHO cell membranes co-expressing Galphai2 by GTPgamma[35S] binding assay.
The target of test [9] is T1, Histamine H4 receptor. Kind of test: Antagonist activity at human H4 receptor assessed as inhibition of imetit-induced GTPgamma[35S] binding after 30 mins by microbeta scintillation counting method.

Voltage-gated inwardly rectifying potassium channel KCNH2, sequence (Q12809 whole entry): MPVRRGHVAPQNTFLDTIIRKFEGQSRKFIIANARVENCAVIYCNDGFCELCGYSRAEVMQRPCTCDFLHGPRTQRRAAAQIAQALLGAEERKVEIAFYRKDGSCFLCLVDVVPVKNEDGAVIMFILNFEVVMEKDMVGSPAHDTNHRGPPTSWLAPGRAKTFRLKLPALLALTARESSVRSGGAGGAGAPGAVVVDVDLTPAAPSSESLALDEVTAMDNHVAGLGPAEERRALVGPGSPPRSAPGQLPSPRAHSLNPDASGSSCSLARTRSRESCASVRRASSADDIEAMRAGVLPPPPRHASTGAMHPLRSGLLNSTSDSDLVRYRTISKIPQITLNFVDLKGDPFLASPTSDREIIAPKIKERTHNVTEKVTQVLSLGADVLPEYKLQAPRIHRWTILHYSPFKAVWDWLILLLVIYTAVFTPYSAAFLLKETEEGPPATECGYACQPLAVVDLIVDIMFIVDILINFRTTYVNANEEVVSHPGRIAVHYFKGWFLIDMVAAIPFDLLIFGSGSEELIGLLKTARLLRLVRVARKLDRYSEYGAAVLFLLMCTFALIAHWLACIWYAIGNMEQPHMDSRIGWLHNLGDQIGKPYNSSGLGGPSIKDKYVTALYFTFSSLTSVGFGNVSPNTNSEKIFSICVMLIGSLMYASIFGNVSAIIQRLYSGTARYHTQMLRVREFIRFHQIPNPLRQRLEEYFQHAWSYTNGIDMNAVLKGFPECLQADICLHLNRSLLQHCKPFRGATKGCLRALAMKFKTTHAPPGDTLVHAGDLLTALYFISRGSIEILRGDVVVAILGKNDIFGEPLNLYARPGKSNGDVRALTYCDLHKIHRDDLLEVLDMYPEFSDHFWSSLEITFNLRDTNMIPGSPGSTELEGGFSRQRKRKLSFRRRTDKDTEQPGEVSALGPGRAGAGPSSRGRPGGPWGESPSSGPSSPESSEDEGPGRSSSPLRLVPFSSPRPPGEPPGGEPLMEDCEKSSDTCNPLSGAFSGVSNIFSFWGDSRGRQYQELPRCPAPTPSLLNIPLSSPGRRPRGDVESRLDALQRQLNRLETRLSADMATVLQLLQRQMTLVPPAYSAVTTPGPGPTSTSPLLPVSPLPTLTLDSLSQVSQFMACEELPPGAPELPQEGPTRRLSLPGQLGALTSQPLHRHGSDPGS
Histamine H3 receptor, sequence (Q9Y5N1 whole entry): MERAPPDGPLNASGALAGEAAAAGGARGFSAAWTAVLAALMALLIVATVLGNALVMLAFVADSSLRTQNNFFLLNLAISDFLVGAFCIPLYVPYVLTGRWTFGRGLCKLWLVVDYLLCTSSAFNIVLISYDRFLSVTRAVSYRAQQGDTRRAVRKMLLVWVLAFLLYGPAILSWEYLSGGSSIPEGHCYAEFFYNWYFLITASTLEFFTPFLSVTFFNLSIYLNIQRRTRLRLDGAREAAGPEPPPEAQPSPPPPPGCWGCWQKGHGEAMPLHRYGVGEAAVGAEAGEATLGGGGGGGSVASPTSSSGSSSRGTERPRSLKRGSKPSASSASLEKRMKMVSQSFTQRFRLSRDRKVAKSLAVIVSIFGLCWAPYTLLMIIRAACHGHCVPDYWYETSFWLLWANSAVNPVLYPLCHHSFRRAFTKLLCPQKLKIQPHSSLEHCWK
T1 sequence (Q9H3N8 whole entry): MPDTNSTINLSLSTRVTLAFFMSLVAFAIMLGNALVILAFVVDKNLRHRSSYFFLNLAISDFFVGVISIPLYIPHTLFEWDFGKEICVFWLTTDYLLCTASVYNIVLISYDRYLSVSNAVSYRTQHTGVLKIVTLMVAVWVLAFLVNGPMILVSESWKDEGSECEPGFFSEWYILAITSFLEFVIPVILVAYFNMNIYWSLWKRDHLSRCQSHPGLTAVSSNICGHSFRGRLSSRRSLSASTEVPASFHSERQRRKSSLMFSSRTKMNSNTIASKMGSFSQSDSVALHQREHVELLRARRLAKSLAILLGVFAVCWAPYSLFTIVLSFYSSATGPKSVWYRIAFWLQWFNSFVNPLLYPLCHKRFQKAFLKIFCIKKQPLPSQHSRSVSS
D(3) dopamine receptor, sequence (P35462 whole entry): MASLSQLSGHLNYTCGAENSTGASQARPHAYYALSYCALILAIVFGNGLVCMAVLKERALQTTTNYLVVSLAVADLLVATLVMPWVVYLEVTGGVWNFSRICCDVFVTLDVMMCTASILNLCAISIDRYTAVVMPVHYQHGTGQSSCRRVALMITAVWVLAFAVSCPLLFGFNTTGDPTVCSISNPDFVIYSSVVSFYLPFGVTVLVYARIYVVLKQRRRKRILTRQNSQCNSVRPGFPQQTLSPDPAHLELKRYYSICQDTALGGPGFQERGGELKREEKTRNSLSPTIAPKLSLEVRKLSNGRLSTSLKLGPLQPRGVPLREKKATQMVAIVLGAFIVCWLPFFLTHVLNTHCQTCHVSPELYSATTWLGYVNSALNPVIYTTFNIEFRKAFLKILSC

A word on the Ki: it is a dissociation constant, usually derived from enzyme kinetics or from competition with a known ligand. Broadly, the inhibition is the relative decrease from the control value, in per cent. As to `COc1cc2c(cc1OC)C(C)=C(C(=O)NCCCCN1CCN(c3ccccc3F)CC1)C2`, the inhibition constant (Ki) was found to be 0.0005 µM on D(3) dopamine receptor and 3.8 µM at Histamine H4 receptor [2]. The inhibition at Histamine H4 receptor [1] was greater than 20%.

As for `FC(F)(F)c1cccc(N2CCN(CCCCNc3nccc4ccccc34)CC2)c1`, the inhibition constant (Ki) at Histamine H4 receptor [3] came out at 0.0054 µM. Moreover, the inhibition on Histamine H4 receptor [4] was greater than 20%.

As for `Clc1cccc(N2CCN(CCCCNc3ccc4ccccc4n3)CC2)c1Cl`, the inhibition on Histamine H4 receptor [1] is greater than 20%. The Ki came out at 0.01 µM in test [5] and 0.125 µM at Histamine H4 receptor [2].

As for `CC(C)(CN=C(c1ccccc1O)c1ccccc1O)c1c[nH]cn1`, the Ki on Histamine H4 receptor [3] was determined as 0.019 µM. Also, the inhibition at Histamine H4 receptor [4] is greater than 20%.

For `O=c1[nH]c2ccccc2n1C1CCN(CCCC(c2ccc(F)cc2)c2ccc(F)cc2)CC1` [PIMOZIDE], the Ki at Histamine H4 receptor [6] stood at 2 µM.

For `COc1ccc2c(c1)c(CC(=O)NCCCn1ccnc1)c(C)n2C(=O)c1ccc(Cl)cc1`, the inhibition at Histamine H4 receptor [1] was greater than 20%. Besides, the Ki on Histamine H4 receptor [2] came out at 4.2 µM.

Consider `O=[N+]([O-])c1cccc(C(OCCCc2c[nH]cn2)c2ccccc2)c1` (configuration not stated), for which the inhibition constant (Ki) at Histamine H4 receptor [3] is 0.0027 µM; at Histamine H3 receptor, 0.0096 µM. Further, on Histamine H4 receptor [4], the inhibition was greater than 20%.

Consider `O=C(CCCc1ccc(I)cc1)OCCCc1c[nH]cn1`, for which, at Histamine H4 receptor [1], the inhibition is greater than 20%.

As to `O=C(NC(c1ccc(Cl)cc1)c1ccc(Cl)cc1)OCCCc1c[nH]cn1`, the values for the inhibition constant (Ki) at Histamine H4 receptor [3] and at Histamine H3 receptor were 0.0145 µM and 0.258 µM, respectively. Also, the inhibition at Histamine H4 receptor [4] was greater than 20%.

`O=C(CCNC(=O)C(Cc1ccccc1)Cn1ccnc1)OCc1ccccc1` (configuration not stated): the Ki on Histamine H4 receptor [3] is 0.174 µM. In addition, the inhibition at Histamine H4 receptor [4] was greater than 20%.

`CC(=O)SCC(Cc1ccc2c(c1)OCO2)C(=O)NCC(=O)OCc1ccccc1` (configuration not stated): the inhibition at Histamine H4 receptor [1] was greater than 20%. For the same compound, the Ki at Histamine H4 receptor [2] was determined as 0.214 µM.

For the compound `O=C(CCCc1ccc(I)cc1)OCCCc1cnc[nH]1`, the inhibition constant (Ki) was determined as 0.041 µM at Histamine H3 receptor and 0.118 µM at Histamine H4 receptor [2].

With `O=C(Nc1cccc2ccccc12)N1CCC(c2c[nH]cn2)CC1`, the inhibition at Histamine H4 receptor [1] is greater than 20%. In addition, on Histamine H4 receptor [2], the inhibition constant (Ki) amounted to 1.09 µM.

Regarding `c1ccc(C(OCCCc2cnc[nH]2)(c2ccccc2)c2ccccc2)cc1`, the Ki on Histamine H3 receptor is greater than 1 µM; at Histamine H4 receptor [2], 0.24 µM.

Turning to `Ic1ccc(C(OCCCc2c[nH]cn2)c2ccccc2)cc1` (configuration not stated), the inhibition constant (Ki) was 0.003 µM on Histamine H4 receptor [3] and 0.014 µM at Histamine H3 receptor. Moreover, the inhibition on Histamine H4 receptor [4] was greater than 20%.

As to `c1ccc(-c2ccc(CCCOCCCc3c[nH]cn3)cc2)cc1`, the values for the Ki on Histamine H4 receptor [3] and on Histamine H3 receptor were 0.027 µM and 0.118 µM, respectively. Also, on Histamine H4 receptor [4], the inhibition was greater than 20%.

In the case of `Nc1ccc(NCCc2ccc(OCCCN3CCCCC3)cc2)nc1`, the inhibition on Histamine H4 receptor [1] was greater than 20%. Moreover, the results for the Ki at Histamine H3 receptor and on Histamine H4 receptor [2] were 0.0048 µM and 30 µM, respectively.

On to `O=C(c1ccccc1)c1ccc(OCCCCCN2CCCC2)cc1`, for which the inhibition on Histamine H4 receptor [1] was greater than 20%. For the same compound, the Ki at Histamine H4 receptor [2] is 13 µM.

As for `O=C(/C=C/c1ccccc1)c1ccc(OCCCc2c[nH]cn2)cc1`, the values for the Ki at Histamine H4 receptor [3] and on Histamine H3 receptor were 0.011 µM and 0.0083 µM, respectively. On Histamine H4 receptor [4], the inhibition was greater than 20%.

With `CC(=O)c1ccc(OCc2ccc(CN3CCCC(C)C3)cc2)cc1` (configuration not stated), the inhibition on Histamine H4 receptor [1] was greater than 20%. Besides, the results for the Ki at Histamine H3 receptor and on Histamine H4 receptor [2] were 0.022 µM and 16.4 µM, respectively.

On to `c1ccc(C(OCCCc2c[nH]cn2)c2ccccc2)cc1`, for which the inhibition constant Ki at Histamine H4 receptor [3] worked out at 0.025 µM; in test [5], 0.5 µM; at Histamine H3 receptor, 0.024 µM. Moreover, the inhibition on Histamine H4 receptor [4] is greater than 20%.

For `Brc1ccc(C(OCCCc2c[nH]cn2)c2ccc3ccccc3c2)cc1` (configuration not stated), the figures for the Ki on Histamine H4 receptor [3] and on Histamine H3 receptor were 0.004 µM and 0.047 µM, respectively. Moreover, the inhibition on Histamine H4 receptor [4] was greater than 20%.

On to `Clc1cccc(N2CCN(CCCCNc3nccc4ccccc34)CC2)c1Cl`, for which the results for the inhibition constant Ki (at Histamine H4 receptor [3]; in test [5]) were 0.0052 µM and 0.03 µM, respectively. Further, at Histamine H4 receptor [4], the inhibition was greater than 20%.

The EC50 is the concentration at which the effect is half-maximal. Read a low EC50 as a more potent agent. On Histamine H4 receptor [7], `COc1ccc(/C(=N/[C@H](C)Cc2cnc[nH]2)c2ccccc2)c(O)c1` returned an Activity greater than 20%. The EC50 at Histamine H4 receptor [8] was 6.75 µM.

Turning to `O=C(O)C(Cc1cccc2ccccc12)NC(=O)[C@@H](CS)Cc1ccccc1` (some centres not stated), the Ki on Histamine H4 receptor [3] amounted to 0.062 µM. Further, the inhibition at Histamine H4 receptor [4] was greater than 20%.

With `c1ccc(C(OCCCc2c[nH]cn2)(c2ccccc2)c2ccccc2)cc1`, on Histamine H4 receptor [1], the inhibition is greater than 20%.

The compound `COc1ccc2c(c1)c(CC(=O)NCCCO)c(C)n2C(=O)c1ccc(Cl)cc1` showed an Activity at Histamine H4 receptor [7] greater than 20%. In addition, the concentration for a half-maximal effect (EC50) at Histamine H4 receptor [8] came out at 7.78 µM.

Regarding `O=C(NCCCCN1Cc2cccc3cccc(c23)C1)c1ccc2ccccc2c1`, the inhibitory constant (Ki) on Histamine H4 receptor [3] turned out to be 0.4 µM. Besides, the inhibition at Histamine H4 receptor [4] is greater than 20%.

For `CCOC(=O)CN1Cc2ccccc2C[C@@H](NC(=O)C(Cc2ccccc2)C(=O)NO)C1=O` (some centres not stated), the inhibition on Histamine H4 receptor [1] is greater than 20%. Further, the inhibition constant (Ki) on Histamine H4 receptor [2] amounted to 3.02 µM.

For the compound `COc1ccccc1N1CCN(CCCCNc2nccc3ccccc23)CC1`, the Ki at Histamine H4 receptor [3] was 0.051 µM. On Histamine H4 receptor [4], the inhibition is greater than 20%.

`O=C(NCCCCN1CCN(c2cccc(Cl)c2Cl)CC1)c1cncc(Br)c1`: the Ki on D(3) dopamine receptor came to 0.0028 µM; on Histamine H4 receptor [9], 3.1 µM.
